Columns and labels:
[1] = test system: plasmid containing the complete DPD cDNA; assay: Real time PCR signal intensity, FRET-HybProbe formate; type: biochemical; settings: 0,1 g/μl compound
Excerpt: For this experiment, the primer mix according to example 3 was used. Various amounts of plasmid containing the complete DPD cDNA ranging from 0,4 to 40 fg were amplified with the primer mix by means of PCR under the conditions of example 3 in the presence or absence of […] compound III according to example 2.
For Real Time PCR detection, FRET-hybridization probes from the LightCycler Dihydropyrimidin-Dehydrogenase (DPD) mRNA quantification kit (Roche Molecular Biochemicals, cat. No. 3136957) were used in concentrations according to the manufacturer's instructions.

[2] = test system: PCR amplification mixture; assay: Hot start effect when added to a PCR amplification mixture; type: biochemical

Compound: O=C(O)C1=C/C(=C(/c2ccc(O)c(C(=O)O)c2)c2cc(Cc3ccc(O)c(C(=O)O)c3)c(O)c(C(=O)O)c2)C=CC1=O [Compound I]
- specific amplification signal (FIG. 3a) ([1]; 0,4 fg template DNA): can only be obtained in presence of the additive
- specific signaling, cycle number of detection (FIG. 3b,c) ([1]; higher template concentrations (4 fg, 40 fg)): detected at earlier cycle numbers
- hot start effect [2]: extensive hot start effect
